Read-outs that look alike come from different tables or passages of the source.
Tests used:
Type in all cases: physicochemical
[1] = Solubility of Form I and Form II in different solvents (excess shaken 24 hours at 20° C., filtration, UV spectrometry); details: for solubility thermodynamic at 24 h: thermodynamic from solid, read-out: Solubility in g/100 mL of solution
Method: An excess of product (Form I or Form II, where appropriate) was shaken with the relevant solvent during 24 hours at 20° C. After filtration, the concentration of the product in solution was determined with UV spectrometry.

[2] = Stability of the polymorphic forms; details: compared among the polymorphic forms
Intrinsic dissolution = details: compared with Form I
[3] = Hygroscopicity of the polymorphic forms; details: compared among the polymorphic forms
[4] = 1-methoxy-2-propanol, 24 hours at 20° C.
[5] = 2-propanol/dichloromethane (97/3) (v/v), 24 hours at 20° C.
[6] = 2-propanone, 24 hours at 20° C.
[7] = 4-methyl-2-pentanone, 24 hours at 20° C.
[8] = acetonitrile, 24 hours at 20° C.
[9] = ethanol/water (95/5) (v/v), 24 hours at 20° C.

SMILES | Solubility in g/100 mL of solution [1, 4] [g/100 mL] | Solubility in g/100 mL of solution ([1]; 2-butanone, 24 hours at 20° C.) [g/100 mL] | Solubility in g/100 mL of solution [1, 5] [g/100 mL] | Solubility in g/100 mL of solution ([1]; 2-propanol, 24 hours at 20° C.) [g/100 mL] | Solubility in g/100 mL of solution [1, 6] [g/100 mL] | Solubility in g/100 mL of solution [1, 7] [g/100 mL] | Solubility in g/100 mL of solution [1, 8] [g/100 mL] | Solubility in g/100 mL of solution [1, 9] [g/100 mL] | Solubility in g/100 mL of solution ([1]; ethanol, 24 hours at 20° C.) [g/100 mL] | Solubility in g/100 mL of solution ([1]; methanol, 24 hours at 20° C.) [g/100 mL] | Solubility in g/100 mL of solution ([1]; toluene, 24 hours at 20° C.) [g/100 mL] | Stability of the polymorph form [2] | other results
COc1ccc2c(O[C@@H]3C[C@H]4C(=O)N[C@]5(C(=O)NS(=O)(=O)C6CC6)C[C@H]5/C=C\CCCCN(C)C(=O)[C@@H]4C3)cc(-c3nc(C(C)C)cs3)nc2c1C [Form II] | 1.6 | 2.5 | 0.19 | 0.11 | 1.2 | 0.81 | 0.20 | 0.27 | 0.17 | 0.29 | 0.43 | less stable but nevertheless sufficiently stable | Solubility in g/100 mL of solution ([1]; 1-butanol, 24 hours at 20° C.): 0.31 g/100 mL; Intrinsic dissolution (Intrinsic dissolution): greater than that of Form I
COc1ccc2c(O[C@@H]3C[C@H]4C(=O)N[C@]5(C(=O)NS(=O)(=O)C6CC6)C[C@H]5/C=C\CCCCN(C)C(=O)[C@@H]4C3)cc(-c3nc(C(C)C)cs3)nc2c1C [Form I] | 0.82 | 0.87 | 0.045 | 0.027 | 0.66 | 0.28 | 0.075 | 0.078 | 0.050 | 0.056 | 0.086 | most stable form | Solubility in g/100 mL of solution ([1]; N,N-dimethylacetamide*, 125 mg of Form I was dissolved in 0.5 mL of N,N-dimethylacetamide): >20 g/100 mL; Solubility in g/100 mL of solution ([1]; N,N-dimethylacetamide, 24 hours at 20° C.): 16 g/100 mL; Solubility in g/100 mL of solution ([1]; acetic acid, 24 hours at 20° C.): 1.7 g/100 mL; solubility thermodynamic at 24 h ([1]; aqueous with cosolvent or surfactant or cyclodextrin, acetic acid/water (10/90) (v/v) (pH = 2.2), 24 hours at 20° C.): < 0.01 mg/mL; Solubility in g/100 mL of solution ([1]; dichloromethane, 24 hours at 20° C.): 8.5 g/100 mL; Solubility in g/100 mL of solution ([1]; ethyl acetate, 24 hours at 20° C.): 0.21 g/100 mL; Solubility in g/100 mL of solution ([1]; methanol/dichloromethane (50/50) (v/v), 24 hours at 20° C.): 8.3 g/100 mL; Solubility in g/100 mL of solution ([1]; tetrahydrofuran, 24 hours at 20° C.): 7.0 g/100 mL; solubility thermodynamic at 24 h ([1]; water (pH = 5.0), 24 hours at 20° C.): < 0.01 mg/mL; Hygroscopicity [3]: least hygroscopic form

Reference: US8143402B2, “Polymorphic forms of a macrocyclic inhibitor of HCV” (Tibotec Pharmaceuticals Ltd., priority 2007, dated 2012)
